The results in this text go back to paper PMC6370995, “Phase I study of PF‐04895162, a Kv7 channel opener, reveals unexpected hepatotoxicity in healthy subjects, but not rats or monkeys: clinical evidence of disrupted bile acid homeostasis” (Pharmacology Research & Perspectives, 2019).

This test addresses T1, MRP4 (Homo sapiens, UniProt O15439).
T1 construct: host or cells: membrane vesicles from HEK293 cells
T1 sequence (O15439 1-1325): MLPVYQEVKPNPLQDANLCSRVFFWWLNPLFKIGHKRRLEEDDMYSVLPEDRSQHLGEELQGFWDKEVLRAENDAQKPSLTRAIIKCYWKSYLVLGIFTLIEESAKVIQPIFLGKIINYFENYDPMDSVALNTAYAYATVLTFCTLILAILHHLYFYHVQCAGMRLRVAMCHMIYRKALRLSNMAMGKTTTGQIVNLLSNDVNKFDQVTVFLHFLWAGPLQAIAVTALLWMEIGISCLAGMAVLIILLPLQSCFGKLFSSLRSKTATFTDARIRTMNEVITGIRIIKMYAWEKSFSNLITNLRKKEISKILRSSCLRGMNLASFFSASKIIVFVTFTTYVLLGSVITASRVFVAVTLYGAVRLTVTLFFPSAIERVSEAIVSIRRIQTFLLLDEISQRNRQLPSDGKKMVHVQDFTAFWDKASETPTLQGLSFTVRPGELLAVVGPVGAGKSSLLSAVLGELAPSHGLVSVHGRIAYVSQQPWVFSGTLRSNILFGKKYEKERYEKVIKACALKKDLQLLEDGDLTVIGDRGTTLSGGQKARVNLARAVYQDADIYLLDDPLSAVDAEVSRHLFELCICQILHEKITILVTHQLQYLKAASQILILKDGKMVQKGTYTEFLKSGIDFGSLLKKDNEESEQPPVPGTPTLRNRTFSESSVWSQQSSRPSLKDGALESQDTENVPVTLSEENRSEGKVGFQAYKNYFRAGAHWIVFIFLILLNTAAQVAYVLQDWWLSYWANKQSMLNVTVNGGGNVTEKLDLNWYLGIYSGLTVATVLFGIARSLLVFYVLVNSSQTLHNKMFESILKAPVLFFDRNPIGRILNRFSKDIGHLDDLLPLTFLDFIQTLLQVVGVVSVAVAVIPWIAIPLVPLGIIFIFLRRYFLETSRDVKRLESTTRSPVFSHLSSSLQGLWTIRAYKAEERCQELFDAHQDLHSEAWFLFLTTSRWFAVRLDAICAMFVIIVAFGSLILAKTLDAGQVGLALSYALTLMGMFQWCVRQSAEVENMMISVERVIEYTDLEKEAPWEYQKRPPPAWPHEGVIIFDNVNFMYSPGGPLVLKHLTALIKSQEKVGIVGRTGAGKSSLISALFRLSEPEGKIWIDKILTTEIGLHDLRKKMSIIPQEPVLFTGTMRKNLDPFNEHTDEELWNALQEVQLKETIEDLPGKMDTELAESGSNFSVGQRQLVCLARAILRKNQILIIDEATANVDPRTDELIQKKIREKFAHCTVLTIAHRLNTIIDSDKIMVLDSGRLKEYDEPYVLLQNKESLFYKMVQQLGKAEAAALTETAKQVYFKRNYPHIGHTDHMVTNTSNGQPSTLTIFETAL
The test is described as follows: MRP4 transporter inhibition in vesicles from HEK293 cells. Type of test: biochemical.
Description: […]

SMILES strings stand for the structures. pIC50: −log10 of the molar value.

For `O=C(Cc1ccc(F)cc1)Nn1c(C2CC2)nc2cc(F)ccc2c1=O` [PF‐04895162, N‐(2‐cyclopropyl‐7‐fluoro‐4‐oxoquinazolin‐3(4H)‐yl)‐2‐(4‐fluorophenyl)ethanamide], the pIC50 (in general, −log10 of the IC50, conventionally taken in molar units) was 3.92.
